Source: patent US10100058B2, “Fused heterocyclic compounds as CaM kinase inhibitors” (Gilead Sciences, Inc., priority 2016, dated 2018)
Read-outs that look alike come from different tables or passages of the source.

Target: recombinant CaMKIIδ (Homo sapiens (Human), UniProt Q13557)
Assay: CaMKIIδ biochemical assay (HTRF)
Procedure: CaMKIIδ Biochemical Assay
The biochemical activity of recombinant CaMKIIδ was measured by monitoring the phosphorylation of a target peptide using Homogenous Time Resolved Fluorescence (HTRF) technology from CisBio Bioassays.

[1] = 10 pM CaMKIIδ, 110 nM calmodulin, 12 μM ATP, 1 hour, read-out: CAMKIID-HTRF-384V2 (IC50 - nM)

For `CCN(CC)[C@@H](C)CNC(=O)c1cc(-c2cnn3ccc(-c4cccs4)nc23)nc(N2CCC[C@@H]2CO)c1` [Example 272, N—((S)-2-(diethylamino)propyl)-2-((R)-2-(hydroxymethyl)pyrrolidin-1-yl)-6-(5-(thiophen-2-yl)pyrazolo[1,5-a]pyrimidin-3-yl)isonicotinamide], the IC50 [1] was 0.14 nM.

With `CCN(CC)[C@@H](C)CNC(=O)c1cc(-c2cnn3ccc(-c4cccs4)nc23)nc(N2CCC[C@@H]2COC)c1` [Example 273, N—((S)-2-(diethylamino)propyl)-2-((R)-2-(methoxymethyl)pyrrolidin-1-yl)-6-(5-(thiophen-2-yl)pyrazolo[1,5-a]pyrimidin-3-yl)isonicotinamide] the IC50 [1] was 1.43 nM.

`CCN(CC)[C@@H](C)CNC(=O)c1cc(-c2cnn3ccc(-c4cccs4)nc23)nc(N2CCC[C@H]2COC)c1` [Example 274, N—((S)-2-(diethylamino)propyl)-2-((S)-2-(methoxymethyl)pyrrolidin-1-yl)-6-(5-(thiophen-2-yl)pyrazolo[1,5-a]pyrimidin-3-yl)isonicotinamide] was tested, and the IC50 [1] was 0.63 nM.

`CCN(CC)[C@@H](C)CNC(=O)c1cc(-c2cnn3ccc(-c4cccs4)nc23)nc(N2CC[C@H]2C(=O)NC)c1` [Example 275, N—((S)-2-(diethylamino)propyl)-2-((S)-2-(methylcarbamoyl)azetidin-1-yl)-6-(5-(thiophen-2-yl)pyrazolo[1,5-a]pyrimidin-3-yl)isonicotinamide] showed an IC50 [1] of 0.2 nM and an IC50 (potency against CamKIIδ acquired with in-house assays, reference for selectivity values, read-out: CamKIIδ potency (Table 1)) of 0.43 nM.

In the case of `CCNC(=O)[C@@H]1CCN1c1cc(C(=O)NC[C@H](C)N(CC)CC)cc(-c2cnn3ccc(-c4cccs4)nc23)n1` [Example 276, N—((S)-2-(diethylamino)propyl)-2-((S)-2-(ethylcarbamoyl)azetidin-1-yl)-6-(5-(thiophen-2-yl)pyrazolo[1,5-a]pyrimidin-3-yl)isonicotinamide], the IC50 [1] is reported as 0.22 nM.

Molecule `CCN(CC)[C@@H](C)CNC(=O)c1cc(-c2cnn3ccc(-c4cccs4)nc23)nc(N2CC[C@H]2C(=O)NC2CC2)c1` [Example 277, 2-((S)-2-(cyclopropylcarbamoyl)azetidin-1-yl)-N—((S)-2-(diethylamino)propyl)-6-(5-(thiophen-2-yl)pyrazolo[1,5-a]pyrimidin-3-yl)isonicotinamide] has an IC50 [1] of 0.51 nM.

For `CCN(CC)[C@@H](C)CNC(=O)c1cc(-c2cnn3ccc(-c4cccs4)nc23)nc(N2CC[C@H]2C(=O)NCC2CC2)c1` [Example 278, 2-((S)-2-((cyclopropylmethyl)carbamoyl)azetidin-1-yl)-N—((S)-2-(diethylamino)propyl)-6-(5-(thiophen-2-yl)pyrazolo[1,5-a]pyrimidin-3-yl)isonicotinamide], the IC50 [1] was 0.41 nM.

`CCN(CC)[C@@H](C)CNC(=O)c1cc(-c2cnn3ccc(-c4cccs4)nc23)nc(N2CC[C@H]2C(=O)N(C)C)c1` [Example 279, N—((S)-2-(diethylamino)propyl)-2-((S)-2-(dimethylcarbamoyl)azetidin-1-yl)-6-(5-(thiophen-2-yl)pyrazolo[1,5-a]pyrimidin-3-yl)isonicotinamide] was tested, and the IC50 [1] was 0.17 nM.

`CCN(CC)C(=O)[C@@H]1CCN1c1cc(C(=O)NC[C@H](C)N(CC)CC)cc(-c2cnn3ccc(-c4cccs4)nc23)n1` [Example 280, N—((S)-2-(diethylamino)propyl)-2-((S)-2-(diethylcarbamoyl)azetidin-1-yl)-6-(5-(thiophen-2-yl)pyrazolo[1,5-a]pyrimidin-3-yl)isonicotinamide] was tested, and the IC50 [1] was 0.45 nM.

For `CCN(CC)[C@@H](C)CNC(=O)c1cc(-c2cnn3ccc(-c4cccs4)nc23)nc(N2CC[C@H]2C(=O)NCCF)c1` [Example 281, N—((S)-2-(diethylamino)propyl)-2-((S)-2-((2-fluoroethyl)carbamoyl)azetidin-1-yl)-6-(5-(thiophen-2-yl)pyrazolo[1,5-a]pyrimidin-3-yl)isonicotinamide], the IC50 [1] was 0.46 nM.

With `CCN(CC)[C@@H](C)CNC(=O)c1cc(-c2cnn3ccc(-c4cccs4)nc23)nc(N2CC[C@H]2C(=O)NCC(F)F)c1` [Example 282, N—((S)-2-(diethylamino)propyl)-2-((S)-2-((2,2-difluoroethyl)carbamoyl)azetidin-1-yl)-6-(5-(thiophen-2-yl)pyrazolo[1,5-a]pyrimidin-3-yl)isonicotinamide] the IC50 [1] was 0.47 nM.

`CCN(CC)[C@@H](C)CNC(=O)c1cc(-c2cnn3ccc(-c4cccs4)nc23)nc(N2CC[C@H]2C(=O)NCC(F)(F)F)c1` [Example 283, N—((S)-2-(diethylamino)propyl)-2-(5-(thiophen-2-yl)pyrazolo[1,5-a]pyrimidin-3-yl)-6-((S)-2-((2,2,2-trifluoroethyl)carbamoyl)azetidin-1-yl)isonicotinamide] showed an IC50 [1] of 1.37 nM.

With `CCN(CC)[C@@H](C)CNC(=O)c1cc(-c2cnn3ccc(-c4cccs4)nc23)nc(N2CC[C@H]2C(=O)N2CC(F)C2)c1` [Example 284, N—((S)-2-(diethylamino)propyl)-2-((S)-2-(3-fluoroazetidine-1-carbonyl)azetidin-1-yl)-6-(5-(thiophen-2-yl)pyrazolo[1,5-a]pyrimidin-3-yl)isonicotinamide] the IC50 [1] was 0.18 nM.

For `CCN(CC)[C@@H](C)CNC(=O)c1cc(-c2cnn3ccc(-c4cccs4)nc23)nc(N2CC[C@H]2C(=O)N2CC3CC3C2)c1` (stereo partly drawn) [Example 285, 2-((2S)-2-(3-azabicyclo[3.1.0]hexane-3-carbonyl)azetidin-1-yl)-N—((S)-2-(diethylamino)propyl)-6-(5-(thiophen-2-yl)pyrazolo[1,5-a]pyrimidin-3-yl)isonicotinamide], the IC50 [1] was 0.42 nM.

With `CCN(CC)[C@@H](C)CNC(=O)c1cc(-c2cnn3ccc(-c4cccs4)nc23)nc(N2CC[C@H]2C(=O)N2CC(NS(C)(=O)=O)C2)c1` [Example 286, N—((S)-2-(diethylamino)propyl)-2-((S)-2-(3-(methylsulfonamido)azetidine-1-carbonyl)azetidin-1-yl)-6-(5-(thiophen-2-yl)pyrazolo[1,5-a]pyrimidin-3-yl)isonicotinamide] the IC50 [1] was 0.16 nM.

`CCN(CC)[C@@H](C)CNC(=O)c1cc(-c2cnn3ccc(-c4cccs4)nc23)nc(N2CC[C@H]2C(=O)N(C)OC)c1` [Example 287, N—((S)-2-(diethylamino)propyl)-2-((S)-2-(methoxy(methyl)carbamoyl)azetidin-1-yl)-6-(5-(thiophen-2-yl)pyrazolo[1,5-a]pyrimidin-3-yl)isonicotinamide] gave an IC50 [1] of 0.33 nM.

`CCN(CC)[C@@H](C)CNC(=O)c1cc(-c2cnn3ccc(-c4cccs4)nc23)nc(N2CC[C@H]2C(=O)N2CCCC2)c1` [Example 288, N—((S)-2-(diethylamino)propyl)-2-((S)-2-(pyrrolidine-1-carbonyl)azetidin-1-yl)-6-(5-(thiophen-2-yl)pyrazolo[1,5-a]pyrimidin-3-yl)isonicotinamide] showed an IC50 [1] of 0.29 nM.

Molecule `CCN(CC)[C@@H](C)CNC(=O)c1cc(-c2cnn3ccc(-c4cccs4)nc23)nc(N2CC[C@H]2C(=O)NOC)c1` [Example 289, N—((S)-2-(diethylamino)propyl)-2-((S)-2-(methoxycarbamoyl)azetidin-1-yl)-6-(5-(thiophen-2-yl)pyrazolo[1,5-a]pyrimidin-3-yl)isonicotinamide] has an IC50 [1] of 0.65 nM.

For `CCN(CC)[C@@H](C)CNC(=O)c1cc(-c2cnn3ccc(-c4cccs4)nc23)nc(N2CC[C@@H]2C(=O)NC)c1` [Example 290, N—((S)-2-(diethylamino)propyl)-2-((R)-2-(methylcarbamoyl)azetidin-1-yl)-6-(5-(thiophen-2-yl)pyrazolo[1,5-a]pyrimidin-3-yl)isonicotinamide], the IC50 [1] was 14.1 nM.

In the case of `CCN(CC)[C@@H](C)CNC(=O)c1cc(-c2cnn3ccc(-c4cccs4)nc23)nc(N2CC[C@H]2C(=O)Nc2nccs2)c1` [Example 291, N—((S)-2-(diethylamino)propyl)-2-((S)-2-(thiazol-2-ylcarbamoyl)azetidin-1-yl)-6-(5-(thiophen-2-yl)pyrazolo[1,5-a]pyrimidin-3-yl)isonicotinamide], the IC50 [1] is reported as 3.55 nM.

`CCN(CC)[C@@H](C)CNC(=O)c1cc(-c2cnn3ccc(-c4cccs4)nc23)nc(N2CC[C@H]2C(=O)N2CC(C)(C)C2)c1` [Example 292, N—((S)-2-(diethylamino)propyl)-2-((S)-2-(3,3-dimethylazetidine-1-carbonyl)azetidin-1-yl)-6-(5-(thiophen-2-yl)pyrazolo[1,5-a]pyrimidin-3-yl)isonicotinamide] showed an IC50 [1] of 0.58 nM.

Molecule `CCN(CC)[C@@H](C)CNC(=O)c1cc(-c2cnn3ccc(-c4cccs4)nc23)nc(N2CC[C@H]2C(=O)N2CCOCC2)c1` [Example 293, N—((S)-2-(diethylamino)propyl)-2-((S)-2-(morpholine-4-carbonyl)azetidin-1-yl)-6-(5-(thiophen-2-yl)pyrazolo[1,5-a]pyrimidin-3-yl)isonicotinamide] has an IC50 [1] of 0.16 nM.

`CCN(CC)[C@@H](C)CNC(=O)c1cc(-c2cnn3ccc(-c4cccs4)nc23)nc(N2CC[C@H]2C(=O)N2CC(F)(F)C2)c1` [Example 294, N—((S)-2-(diethylamino)propyl)-2-((S)-2-(3,3-difluoroazetidine-1-carbonyl)azetidin-1-yl)-6-(5-(thiophen-2-yl)pyrazolo[1,5-a]pyrimidin-3-yl)isonicotinamide] was tested, and the IC50 [1] was 0.22 nM.

For `CCN(CC)[C@@H](C)CNC(=O)c1cc(-c2cnn3ccc(-c4cccs4)nc23)nc(N2CC[C@H]2C(=O)N2CC(OC)C2)c1` [Example 295, N—((S)-2-(diethylamino)propyl)-2-((S)-2-(3-methoxyazetidine-1-carbonyl)azetidin-1-yl)-6-(5-(thiophen-2-yl)pyrazolo[1,5-a]pyrimidin-3-yl)isonicotinamide], the IC50 [1] was 0.25 nM.

In the case of `CCN(CC)[C@@H](C)CNC(=O)c1cc(-c2cnn3ccc(-c4cccs4)nc23)nc(N2CC[C@H]2C(=O)O)c1` [Example 296, (S)-1-(4-(((S)-2-(diethylamino)propyl)carbamoyl)-6-(5-(thiophen-2-yl)pyrazolo[1,5-a]pyrimidin-3-yl)pyridin-2-yl)azetidine-2-carboxylic Acid], the IC50 [1] is reported as 1.93 nM.
